Assays:
[1] = tested on: P388 murine leukemia cells; assay: In vitro cell-based cytotoxicity, parental P388 cells; settings: Mus musculus, 72 h, median cytotoxic concentration, 3 days continuous exposure
Experimental: The proliferation inhibition activity against the murine P388 cell line was measured as follows. Evaluation of a soluble tetrazolium/formazan assay for cell growth and drug sensitivity in culture, using human and other tumor cell lines, was done according to the procedure described in Cancer Res. 1988, 48, 4827-4833. Cells were plated at 4000 cells/well in 96 well microtiter plates and 24 h later drugs were added and serially diluted. The cells were incubated at 37° C. for 72 h, at which time a tetrazolium dye, XTT, containing phenazine methosulfate was added. A dehydrogenase enzyme in live cells reduced the XTT to a form that absorbs light at 450 nm, which could be quantitated spectrophotometrically. The greater the absorbance the greater the number of live cells. The results are expressed as an IC50, which is the drug concentration required to inhibit cell proliferation (i.e., absorbance at 450 nm) to 50% of that of untreated control cells.
(§1) Similarly, P338 murine leukemia cells were maintained in RPMI 1640 supplemented with 20% fetal bovine serum and 10 μM 2-mercaptoethanol. A camptothecin resistant subline, P388/CPT45, was selected for resistance to camptothecin and is over 1000-fold resistant to this compound (Woessner, et al. Oncol. Res. 1992, 4, 481-488).
(§2) In vitro cytotoxicity was assessed in tissue culture cells by MTS (3-(4,5-dimethylthiazol-2-yl)-5-(3-carboxymethoxyphenyl)-2-(4-sulphenyl)-2H-tetrazolium, inner salt) assay (Riss and Moravec, Mol. Biol. Cell 1992, 3 (Suppl.), 184a). Cells were plated at 8,000 cell/well in 96 well microtiter plates and 24 hours later serial dilutions of the test compounds were made and added to the cells. The cells were incubated at 37° C. for 72 hours, at which time the tetrazolium dye, MTS at 333 μg/ml (final concentration), in combination with the electron coupling agent phenazine methosulfate at 25 μM (final concentration) was added. A dehydrogenase enzyme in live cells reduces the MTS to a form that absorbs light at 492 nm which can be quantitated spectrophotometrically. The greater the absorbance the greater the number of live cells. The results are expressed as an IC50, which is the drug concentration required to inhibit cell proliferation (i.e., absorbance at 492 nm) to 50% of that of untreated control cells.
The cytotoxic activity for certain compounds of the present invention, in both parental P388 and the camptothecin-resistant P388/CPT45 cell lines are shown below in Table I.

[2] = molecular target: T1, purified human topoisomerase I (Homo sapiens, UniProt P11387); assay: Topoisomerase I-mediated single strand DNA break induction (in vitro); type: biochemical; settings: median effect concentration for inducing single-strand breaks in the DNA substrate; read-out: Topo I EC50
T1 construct: purchased Topogen
T1 sequence (P11387 1-765): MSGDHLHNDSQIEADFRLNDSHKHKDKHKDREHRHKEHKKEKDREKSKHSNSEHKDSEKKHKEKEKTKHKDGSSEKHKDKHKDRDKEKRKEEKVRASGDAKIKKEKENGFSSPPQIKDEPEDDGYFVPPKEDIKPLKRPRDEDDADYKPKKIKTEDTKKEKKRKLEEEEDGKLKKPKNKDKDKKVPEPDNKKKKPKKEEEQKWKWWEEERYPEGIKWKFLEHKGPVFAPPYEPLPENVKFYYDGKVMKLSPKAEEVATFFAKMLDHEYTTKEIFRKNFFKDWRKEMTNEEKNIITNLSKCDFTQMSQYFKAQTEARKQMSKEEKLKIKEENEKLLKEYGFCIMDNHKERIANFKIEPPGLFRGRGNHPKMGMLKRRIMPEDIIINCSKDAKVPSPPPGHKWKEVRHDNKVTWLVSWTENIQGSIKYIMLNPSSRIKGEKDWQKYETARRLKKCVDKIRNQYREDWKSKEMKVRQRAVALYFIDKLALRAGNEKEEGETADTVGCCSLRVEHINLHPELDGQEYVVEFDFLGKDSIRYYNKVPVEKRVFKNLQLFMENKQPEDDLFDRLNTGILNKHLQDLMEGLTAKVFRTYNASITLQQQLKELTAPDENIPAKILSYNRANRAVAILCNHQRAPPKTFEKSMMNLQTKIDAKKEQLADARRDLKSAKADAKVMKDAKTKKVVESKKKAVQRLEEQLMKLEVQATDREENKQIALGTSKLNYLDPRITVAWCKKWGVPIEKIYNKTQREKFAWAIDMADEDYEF
Experimental: Topoisomerase I activity was measured as described below. The procedure for assaying compound-induced, topoisomerase I-mediated single strand breaks in DNA was essentially that described by Hsiang, et al., (J. Biol. Chem. 1985, 260, 14873-14878). Samples dissolved in 100% DMSO as either […] or 10 mg/ml solutions, unless otherwise stated, were diluted in Tris-EDTA buffer. Marine bacteriophage PM2 DNA (Boehringer Mannheim) was also diluted in Tris-EDTA buffer to a concentration of 0.02 μg/μl. Different dilutions of the compound being evaluated were mixed with diluted DNA and this mixture was added to […] (one unit of enzyme activity is defined as the amount capable of relaxing 100 ng of supercoiled DNA in approximately 30 minutes at 37° C.) aliquots of purified human topoisomerase I (Topogen) in 2X reaction buffer to start the reaction. The compound-DNA-enzyme mixture was incubated for 30 minutes at 37° C. before stopping the reaction with warm stop buffer containing sodium dodecyl sulfate and proteinase K (Sigma). These mixtures were allowed to incubate at 37° C. for another 10 minutes, at which time the mixtures were removed from the waterbath and extracted with a 24:1 mixture of chloroform/isoamyl alcohol. Following centrifugation, aliquots of the aqueous phases were placed in wells of a 0.9% agarose (SeaKem) gel in Tris-borate buffer containing 0.5 μg/ml of ethidium bromide and subjected to electrophoresis for 15 hours to separate the different topological isomers and nicked and broken DNAs. After destaining the gel in water, the ethidium bromide stained DNA reaction products were visualized by exposing the gel to UV irradiation. Negatives of the photographs of the irradiated gels were scanned with a densitometer and areas under the peaks were calculated in order to obtain percent single strand DNA break formation for each sample. A median effective concentration (EC50) was obtained for each compound by interpolation between points of the resulting dose-effect curve which defines the potency of the compound for its effect in inducing topoisomerase I-mediated single strand breaks in DNA. The topoisomerase I activities for certain compounds of the present invention are shown below in Table I.

P388/CPT45 cells = assay: Cytotoxicity in camptothecin-resistant P388/CPT45 cells relative to parental P388 (selectivity index R/S); type: cell-based, murine; settings: IC50 P388/CPT45 cells divided by IC50 parental P388 cells
From the text: The present invention includes fluoro sugar and other sugar derivatives of indolopyrrolocarbazoles of formula (I), as defined above. […] Most importantly, the instant invention describes topo I active compounds, related to compounds disclosed in WO 98/07433 and co-pending U.S. application, Ser. No. 08/914566 (both herein incorporated by reference), which display a surprising and unexpected selectivity index when evaluated for cytotoxicity in certain cell lines which express normal levels of topo I required for cell proliferation, compared with cell lines that are deficient in or underexpress topo I. Said “selectivity index” (R/S) was generated by dividing the cytotoxic IC50 of a particular compound against a camptothecin-resistant murine leukemia cell line, P388/CPT45, by the IC50 generated when using the parent P388 cell line. […] A level of selectivity was judged to be advantageous and beneficial in, for example, modulating potential undesirable side effects and/or toxicity. The compounds of the present invention were selected from compounds generically disclosed in WO 98/07433 and co-pending U.S. patent application, Ser. No. 08/914566, on the basis of an unexpected and unpredictable selectivity index (see Table I and II). […] Simple changes in the substitution of the sugar portion or the indolopyrrolocarbazole portion of the present invention will change the selectivity. This change in selectivity is not predictable by one skilled in the art.
as §1, §2
The selectivity index (R/S) is defined as the ratio obtained by dividing the IC50 value obtained using P388/CPT45 cells by that obtained using parental P388 cells. The R/S ratios used to determine the relative topo I selectivity of selected compounds of this invention are shown below in Table I.

Row | SMILES | IC50 [1] [nM] | EC50 [2] [nM] | Selectivity Index R/S (P388/CPT45 cells)
1 | O=C1NC(=O)c2c1c1c3cc(F)c(F)cc3[nH]c1c1c2c2cc(F)c(F)cc2n1[C@@H]1O[C@H](CF)[C@@H](F)[C@H](O)[C@H]1O [Example 22, 12-[4,6-Difluoro-4,6-dideoxy-β-D-glucopyranosyl]-2,3,9,10-tetrafluoro-12,13-dihydro-5H-indolo[2,3-a]pyrrolo[3,4-c]carbazole-5,7(6H)-dione] | 14 | 80 | 287.7
2 | O=C1NC(=O)c2c1c1c3cc(F)c(F)cc3[nH]c1c1c2c2cc(F)c(F)cc2n1[C@@H]1O[C@H](CF)C[C@@H](F)[C@H]1O [Example 17, 12-[3,6-Difluoro-3,4,6-trideoxy-β-D-allopyranosyl]-2,3,9,10-tetrafluoro-12,13-dihydro-5H-indolo[2,3-a]pyrrolo[3,4-c]carbazole-5,7(6H)-dione] | 41 | 450 | 179.2
3 | O=C1NC(=O)c2c1c1c3cc(F)ccc3[nH]c1c1c2c2cc(F)ccc2n1[C@H]1O[C@H](CF)[C@@H](O)[C@H](O)[C@H]1O [Example 39] | 235 | 100 | 5.0
4 | O=C1NC(=O)c2c1c1c3cc(F)ccc3[nH]c1c1c2c2cc(F)ccc2n1[C@@H]1O[C@H](CO)C(F)(F)[C@H](O)[C@H]1O [Example 25, 12-[4,4-Difluoro-4-deoxy-β-D-glucopyranosyl]-3,9-difluoro-12,13-dihydro-5H-indolo[2,3-a]pyrrolo[3,4-c]carbazole-5,7(6H)-dione] | 3 | 10 | 381.5
5 | O=C1NC(=O)c2c1c1c3cc(F)ccc3sc1c1c2c2cc(F)ccc2n1[C@@H]1O[C@H](CSc2nccc(O)n2)[C@@H](O)[C@H](O)[C@H]1O [Example 35] | > 7680 | 240 | <1.0
6 | O=C1NC(=O)c2c1c1c3cc(F)c(F)cc3[nH]c1c1c2c2cc(F)c(F)cc2n1[C@@H]1O[C@H](CO)[C@@H](F)[C@H](O)[C@H]1O [Example 28, 12-[4-Deoxy-4-fluoro-β-D-glucopyranosyl]-2,3,9,10-tetrafluoro-12,13-dihydro-5H-indolo[2,3-a]pyrrolo[3,4-c]carbazole-5,7(6H)-dione] | 4 | 50 | 499.2
7 | O=C1NC(=O)c2c1c1c3cc(F)ccc3sc1c1c2c2cc(F)ccc2n1[C@@H]1O[C@H](CN2CCOCC2)[C@@H](O)[C@H](O)[C@H]1O [Example 13] | 100 | 160 | 140.0
8 | O=C1NC(=O)c2c1c1c3cc(F)ccc3sc1c1c2c2cc(F)ccc2n1[C@@H]1O[C@H](CF)[C@@H](O)[C@H](O)[C@H]1O [Example 3] | 16 | 60 | 110.4
9 | O=C1NC(=O)c2c1c1c3cc(F)ccc3[nH]c1c1c2c2cc(F)ccc2n1[C@@H]1O[C@H](CF)[C@H](O)[C@H](O)[C@H]1O [Example 4, 12-[6-Deoxy-6-fluoro-β-D-galactopyranosyl]-3,9-difluoro-12,13-dihydro-5H-indolo[2,3-a]pyrrolo[3,4-c]carbazole-5,7(6H)-dione] | 12 | 220 | 110.9
10 | O=C(O)CSC[C@H]1O[C@@H](n2c3ccc(F)cc3c3c4c(c5c6cc(F)ccc6[nH]c5c32)C(=O)NC4=O)[C@H](O)[C@@H](O)[C@@H]1O [Example 1] | 57 | 50 | 101.7
11 | [N-]=[N+]=N[C@H]1[C@@H](O)[C@@H](O)[C@H](n2c3ccc(F)cc3c3c4c(c5c6cc(F)ccc6[nH]c5c32)C(=O)NC4=O)O[C@@H]1CF [Example 19] | < 3 | 60 | >195.2
12 | [N-]=[N+]=N[C@H]1[C@H](O)[C@@H](O)[C@H](n2c3ccc(F)cc3c3c4c(c5c6cc(F)ccc6[nH]c5c32)C(=O)NC4=O)O[C@@H]1CO [Example 10] | 68 | 20 | 121.3
13 | NC[C@H]1O[C@@H](n2c3cc(F)c(F)cc3c3c4c(c5c6cc(F)c(F)cc6sc5c32)C(=O)NC4=O)[C@H](O)[C@@H](O)[C@@H]1F [Example 12, 12-[6-Amino-4,6-dideoxy-4-fluoro-β-D-glucopyranosyl]-2,3,9,10-tetrafluoro-5H,13H-benzo[b]thienyl[2,3-a]pyrrolo[3,4-c]carbazole-5,7(6H)-dione] | 2 | 20 | 131.5
14 | O=C1NC(=O)c2c1c1c3cc(F)c(F)cc3[nH]c1c1c2c2cc(F)c(F)cc2n1[C@@H]1O[C@H](CO)C(F)(F)[C@H](O)[C@H]1O [Example 14] | 6 | 30 | 140.3

From US20030083271A1, “Topoisomerase I selective cytotoxic sugar derivatives of indolopyrrolocarbazoles” (priority 2001, published 2003)
